Consider seven molecules from paper PMC4778918, “Signal Transduction at the Domain Interface of Prokaryotic Pentameric Ligand-Gated Ion Channels” (PLoS Biology, 2016).

For orientation: stoichiometry N means a count of units in the complex or per binding partner. By EC50 is commonly meant the concentration that produces a half-maximal response.

“And” between values parts separate entries of the source, which are not always exact repeats. Equal values may be shown once. Read-outs that look alike come from different tables or passages of the source.

Data set [1] addresses ELIC double mutant R91A/Y258A. In words: SEC. (SEC sorts molecules by how far they enter the pores of the column.)
In data set [2] the target is T1, ELIC WT (Dickeya chrysanthemi, UniProt P0C7B7, INS163G). In words: biochemical. Format: binding, Erwinia chrisanthemi.
The target in the next data set is ELIC R91A (Dickeya chrysanthemi, UniProt P0C7B7, INS163G/R91A). Put plainly: biochemical. Format: binding, Erwinia chrisanthemi. Conditions: read-out: Keff.
A further data set concerns the target ELIC R91A/F116A (Dickeya chrysanthemi, UniProt P0C7B7, F116A/R91A). In words: biochemical. The class given is binding, Erwinia chrisanthemi. Conditions: read-out: Keff.
Another data set addresses ELIC R91A/Y258A (Dickeya chrysanthemi, UniProt P0C7B7, R91A/Y257A). Put plainly: biochemical. The class given is binding, Erwinia chrisanthemi. Conditions: read-out: Keff.
The target in data set [3] is T2, ELIC T28D (Dickeya chrysanthemi, UniProt P0C7B7, INS163G/T28D). In words: biochemical. The class given is binding, Erwinia chrisanthemi. To be noted: ITC.
For a further data set, the system named is ELIC. Also on record: method as in PMID 21713033. To be noted: two-electrode voltage clamp recordings, ELIC WT, in the absence of Ca2+; cited from earlier work. On the technique in general: Two-electrode voltage clamp is typically applied to oocytes expressing channels or transporters.
The next data set addresses ELIC resting state. Conditions: kinetic analysis of single channel recordings of ELIC; read-out: dissociation constant to the resting state; cited from earlier work.
In data set [4] the target is ELIC ligand binding site mutant R91A. In words: SEC.
Data set [5] has as its target T1, ELIC WT. In words: Two-electrode voltage clamp dose-response, ELIC WT in X. laevis oocytes. Format: cell-based, Erwinia chrisanthemi. To be noted: 0.5 mM Ca2+, mean of 4 oocytes. The text has this: X. laevis oocytes were obtained either from Ecocyte or from an in-house facility. Animal procedures and preparation of oocytes followed standard procedures and were in accordance with the Swiss Cantonal and Federal legislation relating to animal experimentation. Plasmid DNA containing the genes coding for the respective constructs for expression in X. laevis oocytes were linearized by MluI, and capped mRNA was transcribed with the mMessage mMachine kit (Ambion) and purified with the RNeasy kit (Qiagen). 10–200 ng of mRNA was injected into defolliculated X. laevis oocytes, which were subsequently incubated in Barth’s solution (88 mM NaCl, 1 mM KCl, 1 mM CaCl2, 0.33 mM Ca(NO3)2, 0.82 mM MgSO4, 10 mM Na-Hepes (pH 7.4) and 50 μg / ml Gentamycin) and stored at 16°C. One to three days after injection, two-electrode voltage clamp measurements were performed at 20°C (OC-725B, Warner Instrument Corp.). For ELIC, maximal currents were recorded in a bath solution containing 10 mM Hepes (pH 7), 130 mM NaCl, 2 mM KCl, 0.5 mM CaCl2 and either 5 mM or 25 mM Cysteamine. For GLIC, the maximal currents were recorded in a bath solution containing 10 mM Citrate (pH 4), 130 mM NaCl, 2 mM KCl, 1.8 mM CaCl2 and 1 mM MgCl2. Dose-response experiments were carried out at agonist concentrations indicated in the respective figures. Voltage was clamped at −40 mV, and data was filtered at 20 Hz unless stated otherwise. Surface expression in constructs containing an HA-tag was assayed after electrophysiological characterization as described. For that purpose, the oocytes were placed in a 96-well plate (TPP) and incubated in ND96 solution (93.5 mM NaCl, 2 mM KCl, 1.8 mM CaCl2, 2 mM MgCl2 and 10 mM Hepes, pH 7.4) containing 1% BSA for at least 30 min. All steps were carried out at 4°C with the same buffer unless mentioned otherwise. Oocytes were subsequently transferred into buffer containing 1 μg/ml rat monoclonal anti-HA antibody (3F10, Roche) for 1 h, washed 3 times and incubated with buffer containing 0.16 μg/ml horseradish peroxidase (HRP) coupled to a secondary antibody (HRP-conjugated goat anti-rat F(Ab)2 fragments, Jackson) for 30–60 min. The oocytes were washed 5 times with ND96 solution and subsequently transferred to a white 96-well plate (flat bottom, Nunclon Delta Surface). The solution was aspirated, 30 μl of Super Signal ELISA femto solutions 1 and 2 (Pierce) was added, and luminescence was quantitated with a Tecan infinite M1000 plate reader.

In data set [6] the target is T2, ELIC T28D. Format: cell-based, Erwinia chrisanthemi. To be noted: 0.5 mM Ca2+, mean of 5 oocytes.
Text: (§1) X. laevis oocytes were obtained either from Ecocyte or from an in-house facility. Animal procedures and preparation of oocytes followed standard procedures and were in accordance with the Swiss Cantonal and Federal legislation relating to animal experimentation. Plasmid DNA containing the genes coding for the respective constructs for expression in X. laevis oocytes were linearized by MluI, and capped mRNA was transcribed with the mMessage mMachine kit (Ambion) and purified with the RNeasy kit (Qiagen). 10–200 ng of mRNA was injected into defolliculated X. laevis oocytes, which were subsequently incubated in Barth’s solution (88 mM NaCl, 1 mM KCl, 1 mM CaCl2, 0.33 mM Ca(NO3)2, 0.82 mM MgSO4, 10 mM Na-Hepes (pH 7.4) and 50 μg / ml Gentamycin) and stored at 16°C. One to three days after injection, two-electrode voltage clamp measurements were performed at 20°C (OC-725B, Warner Instrument Corp.). For ELIC, maximal currents were recorded in a bath solution containing 10 mM Hepes (pH 7), 130 mM NaCl, 2 mM KCl, 0.5 mM CaCl2 and either 5 mM or 25 mM Cysteamine. […] Dose-response experiments were carried out at agonist concentrations indicated in the respective figures. Voltage was clamped at −40 mV, and data was filtered at 20 Hz unless stated otherwise.
Another data set addresses ELIC T28A (Dickeya chrysanthemi, UniProt P0C7B7, INS163G/T28A). The class given is cell-based, Erwinia chrisanthemi. To be noted: for I/Imax mean: ELIC T28A, 0.5 mM Ca2+, mean of 4 oocytes.
The target in the next data set is ELIC L29A (Dickeya chrysanthemi, UniProt P0C7B7, INS163G/L29A). Format: cell-based, Erwinia chrisanthemi. Conditions: 0.5 mM Ca2+, mean of 3 oocytes.
The next data set has as its target ELIC ΔL29 (Dickeya chrysanthemi, UniProt P0C7B7, DEL29-29/INS163G). Format: cell-based, Erwinia chrisanthemi. To be noted: ELIC woL29 (deletion of Leu29), 0.5 mM Ca2+, mean of 4 oocytes.
A further data set deals with ELIC P254A (Dickeya chrysanthemi, UniProt P0C7B7, P253A). The class given is cell-based, Erwinia chrisanthemi.
Data set [7] concerns the molecule itself. Put plainly: SEC; gel filtration on Superdex 200 at 4°C in buffer with 0.145% UDM after removal of His10-MBP; pentamer peak pooled for ITC.
The data set “SEC” deals with the molecule itself. Put plainly: SEC.

Text for ELIC L29A: as §1
Text for ELIC P254A: as §1
Text for ELIC T28A: as §1
Text for ELIC ΔL29: as §1

Consider “ELIC double mutant R91A/Y258A (receptor)”, for which the stoichiometry N in [1] was found to be 5.

With `CCCN` [propylamine], on ELIC WT [2], the “Keff (ITC) higher than EC50 (two-electrode voltage clamp)” value is listed as “about 20 fold”. Moreover, the Kd on ELIC WT [2] (ITC, ELIC WT in detergent (UDM), 4°C, single-site isotherm, read-out: effective dissociation constant (Keff)) is 8000 µM; on ELIC R91A (ITC, ELIC ligand binding site mutant R91A, 4°C), 1100 µM; at ELIC R91A/F116A (ITC, ELIC double mutant R91A/F116A, 4°C) it was 800 µM; at ELIC R91A/Y258A (ITC, ELIC double mutant R91A/Y258A, 4°C), 900 µM; on ELIC T28D [3] (ELIC mutant T28D, agonist, read-out: Keff) it was 90 µM; at ELIC resting state, 7100 µM. Further, on ELIC T28D [3] (ELIC T28D versus WT), the “decrease in Keff concentration compared to WT” value is 90 fold. Also, the EC50 in the data set with ELIC was 450 µM.

Take `CC(=O)OCC[N+](C)(C)C` [acetylcholine]: the Kd is 1400 µM at ELIC R91A, 1800 µM on ELIC R91A/F116A and 2000 µM at ELIC R91A/Y258A. Further, the “binding of the antagonist compared to WT” value at ELIC T28D [3] (ELIC T28D versus WT) was “unchanged”.

The molecule “ELIC ligand binding site mutant R91A (receptor)” came in with a stoichiometry N in data set [4] of 5.

In the case of `NCCS` [cysteamine], the I/Imax mean on ELIC WT [5] (conc cys. 0.1 (mM)) worked out at 0.00; at ELIC WT [5] (conc cys. 0.25 (mM)), 0.00655; on ELIC WT [5] (conc cys. 0.5 (mM)), 0.09; at ELIC WT [5] (conc cys. 0.75 (mM)), 0.32; at ELIC WT [5] (conc cys. 1 (mM)), 0.54; at ELIC WT [5] (conc cys. 5 (mM)), 1.00. In addition, the I/Imax mean on ELIC T28D [6] (conc cys. 0.01 (mM)) amounted to 0.13; at ELIC T28D [6] (conc cys. 0.025 (mM)), 0.63; on ELIC T28D [6] (conc cys. 0.05 (mM)), 0.96; at ELIC T28D [6] (conc cys. 0.1 (mM)) it was 1.00; at ELIC T28A (conc cys. 1.00 (mM)), 0.0138; on ELIC T28A (conc cys. 2.50 (mM)), 0.34. Also, the I/Imax mean on ELIC T28A (conc cys. 5.00 (mM)) was found to be 0.56; at ELIC T28A (conc cys. 10.00 (mM)), 0.83; at ELIC T28A (conc cys. 25.00 (mM)), 1.00; on ELIC L29A (conc cys. 0.1 (mM)), 0.16; at ELIC L29A (conc cys. 0.25 (mM)) it was 0.69; on ELIC L29A (conc cys. 0.35 (mM)), 0.79. For the same molecule, the I/Imax mean at ELIC L29A (conc cys. 0.5 (mM)) is given as 0.88; on ELIC L29A (conc cys. 0.75 (mM)), 1.00; at ELIC ΔL29 (conc cys. 0.25 (mM)) it was 0.10; at ELIC ΔL29 (conc cys. 0.5 (mM)), 0.43; at ELIC ΔL29 (conc cys. 0.75 (mM)) it was 0.64; on ELIC ΔL29 (conc cys. 1 (mM)) it was 0.86. The I/Imax mean on ELIC ΔL29 (conc cys. 2.5 (mM)) was found to be 1.00; at ELIC P254A (conc cys. 0.25 (unit not given)), 0.0189; on ELIC P254A (conc cys. 0.5 (unit not given)), 0.14; at ELIC P254A (conc cys. 0.75 (unit not given)) it was 0.41; on ELIC P254A (conc cys. 1 (unit not given)), 0.51; on ELIC P254A (conc cys. 2.5 (unit not given)), 0.90. The “I/Imax mean” value on ELIC P254A (conc cys. 5 (unit not given)) came to 1.00. In addition, the “EC50 higher than WT” value at ELIC T28A (ELIC T28A versus WT, two-electrode voltage clamp) was 3.5 fold. Moreover, the “I/Imax, single oocyte” value on ELIC P254A (conc cys. 0.5 (unit not given), listed as cys.) was 0.13 and 0.12 and 0.19; at ELIC P254A (conc cys. 0.75 (unit not given), listed as cys.), 0.33 and 0.45 and 0.39 and 0.42; on ELIC P254A (conc cys. 1 (unit not given), listed as cys.), 0.42 and 0.56 and 0.47; at ELIC P254A (conc cys. 2.5 (unit not given), listed as cys.) it was 0.82 and 0.97 and 0.85 and 0.95 and 0.92; on ELIC P254A (conc cys. 5 (unit not given)) it was 1.00.

B1: ELIC wild type (receptor)
chain: APADNAADARPVDVSVSIFINKIYGVNTLEQTYKVDGYIVAQWTGKPRKTPGDKPLIVENTQIERWINNGLWVPALEFINVVGSPDTGNKRLMLFPDGRVIYNARFLGSFSNDMDFRLFPFDRQQFVLELEPFSYNNQQLRFSDIQVYTENIDNEEIDEWWIRKASTHISDIRYDHLSSVQPNQNEFSRITVRIDAVRNPSYYLWSFILPLGLIIAASWSVFWLESFSERLQTSFTLMLTVVAYAFYTSNILPRLPYTTVIDQMIIAGYGSIFAAILLIIFAHHRQAMGVEDDLLIQRCRLAFPLGFLAIGCVLVIRGITL
notes: ELIC, prokaryotic pentameric ligand-gated ion channel; GenBank WP_013319743 printed; Homopentamer; purified for ITC with small-molecule ligands; also called ELIC WT; source: E. coli BL21-DE3, purified (extracted in UDM, Ni-NTA, HRV 3C cleavage, Superdex 200 gel filtration); not shown: His10, N-terminal, cleaved
Consider B1, for which the “stoichiometry N” value in [7] is 5.

B2: ELIC double mutant R91A/F116A (receptor)
chain: APADNAADARPVDVSVSIFINKIYGVNTLEQTYKVDGYIVAQWTGKPRKTPGDKPLIVENTQIERWINNGLWVPALEFINVVGSPDTGNKALMLFPDGRVIYNARFLGSFSNDMDARLFPFDRQQFVLELEPFSYNNQQLRFSDIQVYTENIDNEEIDEWWIRKASTHISDIRYDHLSSVQPNQNEFSRITVRIDAVRNPSYYLWSFILPLGLIIAASWSVFWLESFSERLQTSFTLMLTVVAYAFYTSNILPRLPYTTVIDQMIIAGYGSIFAAILLIIFAHHRQAMGVEDDLLIQRCRLAFPLGFLAIGCVLVIRGITL
notes: source: E. coli BL21-DE3, purified (extracted in UDM, Ni-NTA, HRV 3C cleavage, Superdex 200 gel filtration)
Turning to B2, the “stoichiometry N” value in “SEC” amounted to 5.
